Test results: ChEMBL document CHEMBL4765464, “Discovery of BMS-986144, a Third-Generation, Pan-Genotype NS3/4A Protease Inhibitor for the Treatment of Hepatitis C Virus Infection” (J Med Chem, 2020)

Columns and labels:
[1] = Inhibition of recombinant full length NS3/4A protease in Hepatitis C virus subtype 2a replicon infected in human HuH7 cells preincubated for 3 days followed by substrate addition and measured after 2 hrs by renilla luciferase reporter gene assay; type: cell-based; conditions: Huh-7
[2] = Clearance in dog at 3 mg/kg, po or 1 mg/kg, iv; type: ADME, organism-based, Canis lupus familiaris; conditions: in vivo
[3] = Inhibition of recombinant full length NS3/4A D168V mutant protease in Hepatitis C virus subtype 1b replicon infected in human HuH7 cells preincubated for 3 days followed by substrate addition and measured after 2 hrs by renilla luciferase reporter gene assay; type: cell-based; conditions: Huh-7
[4] = Drug concentration in rat liver at 5 mg/kg, po measured upto 24 hrs; type: ADME, organism-based; conditions: read-out: Ct
[5] = AUC in dog at 3 mg/kg, po or 1 mg/kg, iv; type: ADME, organism-based, Canis lupus familiaris; design: dose 3 mg/kg; conditions: in vivo
[6] = AUC in cynomolgus monkey at 3 mg/kg, po or 1 mg/kg, iv; type: ADME, organism-based, Macaca fascicularis; design: dose 3 mg/kg; conditions: in vivo
[7] = AUC in rat at 5 mg/kg, po or 1 mg/kg, iv; type: ADME, organism-based; design: dose 5 mg/kg; conditions: in vivo
[8] = Half-life in cynomolgus monkey at 3 mg/kg, po or 1 mg/kg, iv; type: ADME, organism-based, Macaca fascicularis; conditions: in vivo
[9] = Clearance in rat at 5 mg/kg, po or 1 mg/kg, iv; type: ADME, organism-based; conditions: in vivo
[10] = Drug concentration in rat plasma at 5 mg/kg, po measured upto 24 hrs; type: ADME, organism-based; conditions: read-out: Ct
[11] = Oral bioavailability in rat at 5 mg/kg; type: ADME, organism-based; conditions: in vivo
[12] = Inhibition of recombinant full length NS3/4A protease in Hepatitis C virus subtype 1a replicon infected in human HuH7 cells preincubated for 3 days followed by substrate addition and measured after 2 hrs by renilla luciferase reporter gene assay; type: cell-based; conditions: Huh-7
[13] = Drug concentration in dog plasma at 3 mg/kg, po measured upto 24 hrs; type: ADME, organism-based, Canis lupus familiaris; conditions: read-out: Ct
[14] = Inhibition of recombinant full length NS3/4A protease in Hepatitis C virus subtype 3a infected in human HuH7 cells using Ac-Asp-Glu-Asp (EDANS)-Glu-Glu-Abu-(COO) Ala-Ser-Lys (DABCYL)-NH2 as substrate by FRET assay; conditions: Huh-7
[15] = Inhibition of recombinant full length NS3/4A protease in Hepatitis C virus subtype 1b replicon infected in human HuH7 cells preincubated for 3 days followed by substrate addition and measured after 2 hrs by renilla luciferase reporter gene assay; type: cell-based; conditions: Huh-7
[16] = Half-life in dog at 3 mg/kg, po or 1 mg/kg, iv; type: ADME, organism-based, Canis lupus familiaris; conditions: in vivo
[17] = Inhibition of recombinant full length NS3/4A R155K mutant protease in Hepatitis C virus subtype 1a replicon infected in human HuH7 cells preincubated for 3 days followed by substrate addition and measured after 2 hrs by renilla luciferase reporter gene assay; type: cell-based; conditions: Huh-7
[18] = Inhibition of recombinant full length NS3/4A protease in Hepatitis C virus subtype 3a replicon infected in human HuH7 cells preincubated for 3 days followed by substrate addition and measured after 2 hrs by renilla luciferase reporter gene assay; type: cell-based; conditions: Huh-7
[19] = Metabolic stability in human liver microsomes assessed as half-life incubated for 5 to 45 mins in presence of NADPH by LC-MS analysis; type: ADME, Microsome; conditions: time 5-45 min
[20] = Cmax in rat at 5 mg/kg, po; type: ADME, organism-based; design: route oral, dose 5 mg/kg; conditions: in vivo
[21] = Ratio of drug concentration in liver to plasma in rat at 5 mg/kg, po measured upto 24 hrs; type: ADME, organism-based; conditions: liver and plasma
[22] = Clearance in rat at 1 mg/kg, iv; type: ADME, organism-based; conditions: in vivo
[23] = AUC (0 to 24 hrs) in rat at 5 mg/kg, po; type: ADME, organism-based; design: time < 24 hr, route oral, dose 5 mg/kg; conditions: in vivo
[24] = Half life in rat at 1 mg/kg, iv; type: ADME, organism-based; conditions: in vivo

Structure (SMILES) | EC50 [1] | EC50 [3] | EC50 [12] | IC50 [14] | EC50 [15] | EC50 [17] | EC50 [18] | half-life [19] | further results
C=C[C@@H]1C[C@]1(NC(=O)[C@@H]1C[C@@H](Oc2ncc(OC)c3ccc(Cl)cc23)CN1C(=O)[C@@H](NC(=O)OC(C)(C)C)C(C)(C)C)C(=O)NS(=O)(=O)C1CC1 | 217 nM | 187 nM | 4 nM | 395 nM | 1.2 nM | 150 nM | 407 nM | – | clearance [2]: 18.7 mL/min/kg; concentration at 24 h [4]: 15 µM; AUC [5]: 2.2 µM·h; AUC [6]: 0.65 µM·h; AUC [7]: 1.2 µM·h; half-life [8]: 78 min; clearance [9]: 38 mL/min/kg; concentration at 24 h [10]: 0.033 µM; bioavailability [11]: 14%; concentration at 24 h [13]: < 0.01 µM; half-life [16]: 60 min
COc1cnc(O[C@@H]2C[C@H]3C(=O)N[C@]4(C(=O)NS(=O)(=O)C5CC5)C[C@H]4/C=C\CC[C@@H](C)C[C@@H](C)[C@H](NC(=O)OC(C)(C)C)C(=O)N3C2)c2cc(Cl)ccc12 | 1.2 nM | 1.3 nM | 1.2 nM | 4.4 nM | 0.6 nM | 4 nM | – | 6.7 min | –
COc1cnc(O[C@@H]2C[C@H]3C(=O)N[C@]4(C(=O)NS(=O)(=O)C5(C)CC5)C[C@H]4/C=C\CC[C@@H](C)C[C@@H](C)[C@H](NC(=O)OC(C)(C)C(F)(F)F)C(=O)N3C2)c2ccccc12 | 0.6 nM | 4.7 nM | 0.8 nM | 0.9 nM | 0.3 nM | 1.6 nM | 5 nM | 15 min | Cmax [20]: 5.29 µM; concentration at 24 h [4]: 5.74 µM; Kp at 24 h [21]: 25; clearance [22]: 1.7 mL/min/kg; AUC(0-t) at 24 h [23]: 34.2 µM·h; concentration at 24 h [10]: 0.226 µM; bioavailability [11]: 60%; half-life [24]: 342 min
CC[C@@H]1CCCC/C=C\[C@@H]2C[C@@]2(C(=O)NS(=O)(=O)C2CC2)NC(=O)[C@@H]2C[C@@H](Oc3ncc(OC)c4ccc(Cl)cc34)CN2C(=O)[C@H]1NC(=O)OC(C)(C)C(F)(F)F | 2.1 nM | 4.8 nM | 0.84 nM | 29.5 nM | 0.47 nM | 45.2 nM | – | 48 min | –
CC[C@@H]1C[C@H](C)CC/C=C\[C@@H]2C[C@@]2(C(=O)NS(=O)(=O)C2CC2)NC(=O)[C@@H]2C[C@@H](Oc3ncc(OC)c4ccccc34)CN2C(=O)[C@H]1NC(=O)OC(C)(C)C | 5.1 nM | 18 nM | 2.2 nM | 0.16 nM | 1.5 nM | 12.6 nM | – | 8.6 min | –
COc1cnc(O[C@@H]2C[C@H]3C(=O)N[C@]4(C(=O)NS(=O)(=O)C5CC5)C[C@H]4/C=C\CC[C@H](C)C[C@@H](C)[C@H](NC(=O)OC(C)(C)C)C(=O)N3C2)c2cc(Cl)ccc12 | 19 nM | 25 nM | 5 nM | 50 nM | 4 nM | 700 nM | – | – | –
[2H]C([2H])([2H])Oc1cnc(O[C@@H]2C[C@H]3C(=O)N[C@]4(C(=O)NS(=O)(=O)C5(C)CC5)C[C@H]4/C=C\CC[C@@H](C)C[C@@H](C)[C@H](NC(=O)OC(C)(C)C(F)(F)F)C(=O)N3C2)c2ccccc12 | 0.5 nM | 2.3 nM | 0.6 nM | – | 0.4 nM | 1.6 nM | 4 nM | 18 min | –
COc1cnc(O[C@@H]2C[C@H]3C(=O)N[C@]4(C(=O)NS(=O)(=O)C5CC5)C[C@H]4/C=C\CCCCC[C@H](NC(=O)OC(C)(C)C)C(=O)N3C2)c2cc(Cl)ccc12 | – | – | – | 51 nM | – | – | – | 6.4 min | –
